For orientation: inhibition means the drop in the measured response relative to a control, in per cent.

The target in one data set is Neuropeptide Y Y2 (Homo sapiens, UniProt P49146). Kind of data set: LeadProfilingScreen: Neuropeptide Y Y2. The format is binding.
Data set [1] deals with Purinergic P2Y, Non-Selective. In words: LeadProfilingScreen: Purinergic P2Y, Non-Selective. The format is binding, rat. To be noted: 10 μM.
In data set [2] the target is Transporter, Dopamine (DAT) (Homo sapiens, UniProt Q01959). Kind of data set: LeadProfilingScreen: Transporter, Dopamine (DAT). The format is binding.
The target of another data set is Melatonin MT1 (Homo sapiens, UniProt P48039). Kind of data set: LeadProfilingScreen: Melatonin MT1. The format is binding.
The subject of data set [3] is GABAA, Flunitrazepam, Central. In words: LeadProfilingScreen: GABAA, Flunitrazepam, Central. The format is binding, rat. The following applies: 10 μM.
Data set [4] is described as follows: Pharmacokinetics after intraperitoneal administration. The format is in vivo. The following applies: male, ICR, mouse, plasma, 5 mg/kg, 5 mg/kg IP, at one hour. Here is the method:
Male ICR mice weighed (29–33 g) were obtained from BioLASCO (Taiwan Co., Ltd., Ilan, Taiwan). The animal studies were performed according to NHRI institutional animal care and committee-approved procedures. Food and water were available ad libitum throughout the experiment. A single 5.0 mg/kg dose of CN016 was dissolved in normal saline and was separately administered to mice intravenously. The groups consisted of three mice for each time point. At times 0.03, 0.08, 0.25, 0.5, 1, 2, 4, 6, 8, 16, and 24 h after dosing, blood was collected from groups of three mice at each time point by cardiac puncture. Plasma was separated from blood and stored in a freezer (−80 °C) before LC/MS/MS analysis. In addition, pharmacokinetic analysis of CN016 following intraperitoneal administration (IP, 5 mg/kg) is provided in Figure S2 (Supporting Information).
Figure S2. Pharmacokinetic profiles of CN016 (5 mg/kg) after intraperitoneal administration. (A) Plasma concentration-time profiles of the CN016 after intraperitoneal injection of a 5 mg/kg dose. Red Circle: a drug concentration of 10 nM.
Blue Triangle: a drug concentration of 1000 nM. (B) Pharmacokinetic parameter of CN016 after intraperitoneal administration.
The pharmacokinetics of CN016 after IP administration (5 mg/kg) is illustrated in Figure S2. […]

The next data set relates to mice. In words: Hemodynamic monitoring (systolic pressure, heart rate) and body weight. The format is in vivo, mouse. Here is the method:
The baseline of every neurological behavior test was measured in 6-week-old C57BL/6J female mice prior to treatment. […] Three behavioral tests were performed on the same groups of animals once per week and no more than two behavioral tests on the same day. The first behavioral experiment was performed on the next day after the last course of treatment. Mechanical hyperalgesia was evaluated by using von Frey filament (#2390, IITC Inc., USA), thermal sensitivity was determined by the tail immersion assay (water temperature: 48–49 °C), and motor coordination was assessed by rotarod (#7750, Ugo Basile Biological Research Apparatus, Italy). After the first drug implantation, the body weight was recorded every 6 days throughout the entire experiment.
Noninvasive automatized tail-cuff system (Visitech Systems, Apex, NC, USA) was used to measure the systolic pressure and the heart rate of conscious mice. All mice were placed in a constant temperature platform at least three times to adapt the system prior to hemodynamic measurement. The root of the tail was mounted on the occlusion and sensor cuff after the mouse was placed in a constant temperature platform. Each mouse was measured for at least 15 repetitions to obtain the mean of systolic pressure and heart rate. The hemodynamic change of each mouse was measured at five different time points.

A further data set has as its target Neuropeptide Y Y1 (Homo sapiens, UniProt P25929). In words: LeadProfilingScreen: Neuropeptide Y Y1. The format is binding.
The target in another data set is hERG (Homo sapiens, UniProt Q12809). In words: hERG patch-clamp assay (hERG-CHO, automated patch-clamp). Details: host or cells: CHO (hERG-CHO). The format is cell-based. Here is the method:
CN016 were tested in the hERG (hERG-CHO, automated patch-clamp) assay and determined at Eurofins Panlabs (Missouri, USA). The experiment was accepted in accordance with Eurofins validation Standard Operating Procedure. The tested result […]
Table S3. Result of hERG patch-clamp assay of CN016
(Block of hERG is tested as a sign of cardiac risk.)

In a further data set the test system is Purinergic P2X. In words: LeadProfilingScreen: Purinergic P2X. The format is binding, rat. The following applies: 10 μM.
Data set [5] has as its target Nicotinic Acetylcholine α3β4 (Homo sapiens, UniProt P30926+P32297). Kind of data set: LeadProfilingScreen: Nicotinic Acetylcholine α3β4. The format is binding.
Another data set deals with Dopamine D3 (Homo sapiens, UniProt P35462). In words: LeadProfilingScreen: Dopamine D3. The format is binding.
The test system of data set [6] is Glutamate, NMDA, Phencyclidine. Kind of data set: LeadProfilingScreen: Glutamate, NMDA, Phencyclidine. The format is binding, rat. The following applies: 10 μM.
Another data set has as its target Adrenergic β2 (Homo sapiens, UniProt P07550). In words: LeadProfilingScreen: Adrenergic β2. To be noted: read-out: Inhibition (%), Adrenergic β2. The format is binding. An excerpt:
LeadProfilingScreen (Total # of Assays: 67)
To evaluate, in LeadProfilingScreen, the activity of test compound CN168 (Panlabs # 1251879). […]
Summary of Significant Results
Biochemical assay results are presented as the percent inhibition of specific binding or activity throughout the report.
All other results are expressed in terms of that assay's quantitation method.
• For primary assays, only the lowest concentration with a significant response judged by the assays' criteria, is […]
• Where applicable, either the secondary assay results with the lowest dose/concentration meeting the significance […]
• Unless otherwise requested, primary screening in duplicate with quantitative data (e.g., IC50 ± SEM, Ki ± SEM and nH) are shown where applicable for individual requested assays. In screening packages, primary screening in duplicate with semi-quantitative data (e.g., estimated IC50, Ki and nH) are shown where applicable (concentration range of 4 log units); available secondary functional assays are carried out ([…]) and MEC or MIC determined only if active in primary assays >50% at 1 log unit below initial test concentration. […]

The target in the next data set is Dopamine D1 (Homo sapiens, UniProt P21728). Kind of data set: LeadProfilingScreen: Dopamine D1. The format is binding.
A further data set addresses Muscarinic M2 (Homo sapiens, UniProt P08172). Kind of data set: LeadProfilingScreen: Muscarinic M2. The format is binding.
Setting [7] is: CN016 (5, 10 or 20 mg/kg) and paclitaxel (4.5 mg/kg).

Each structure is given as a SMILES string. “And” between values parts separate entries of the source, which are not always exact repeats. Equal entries are not always repeated. Structures can show the parent of a compound that is named as a salt.

Chain of hERG (Q12809 whole entry): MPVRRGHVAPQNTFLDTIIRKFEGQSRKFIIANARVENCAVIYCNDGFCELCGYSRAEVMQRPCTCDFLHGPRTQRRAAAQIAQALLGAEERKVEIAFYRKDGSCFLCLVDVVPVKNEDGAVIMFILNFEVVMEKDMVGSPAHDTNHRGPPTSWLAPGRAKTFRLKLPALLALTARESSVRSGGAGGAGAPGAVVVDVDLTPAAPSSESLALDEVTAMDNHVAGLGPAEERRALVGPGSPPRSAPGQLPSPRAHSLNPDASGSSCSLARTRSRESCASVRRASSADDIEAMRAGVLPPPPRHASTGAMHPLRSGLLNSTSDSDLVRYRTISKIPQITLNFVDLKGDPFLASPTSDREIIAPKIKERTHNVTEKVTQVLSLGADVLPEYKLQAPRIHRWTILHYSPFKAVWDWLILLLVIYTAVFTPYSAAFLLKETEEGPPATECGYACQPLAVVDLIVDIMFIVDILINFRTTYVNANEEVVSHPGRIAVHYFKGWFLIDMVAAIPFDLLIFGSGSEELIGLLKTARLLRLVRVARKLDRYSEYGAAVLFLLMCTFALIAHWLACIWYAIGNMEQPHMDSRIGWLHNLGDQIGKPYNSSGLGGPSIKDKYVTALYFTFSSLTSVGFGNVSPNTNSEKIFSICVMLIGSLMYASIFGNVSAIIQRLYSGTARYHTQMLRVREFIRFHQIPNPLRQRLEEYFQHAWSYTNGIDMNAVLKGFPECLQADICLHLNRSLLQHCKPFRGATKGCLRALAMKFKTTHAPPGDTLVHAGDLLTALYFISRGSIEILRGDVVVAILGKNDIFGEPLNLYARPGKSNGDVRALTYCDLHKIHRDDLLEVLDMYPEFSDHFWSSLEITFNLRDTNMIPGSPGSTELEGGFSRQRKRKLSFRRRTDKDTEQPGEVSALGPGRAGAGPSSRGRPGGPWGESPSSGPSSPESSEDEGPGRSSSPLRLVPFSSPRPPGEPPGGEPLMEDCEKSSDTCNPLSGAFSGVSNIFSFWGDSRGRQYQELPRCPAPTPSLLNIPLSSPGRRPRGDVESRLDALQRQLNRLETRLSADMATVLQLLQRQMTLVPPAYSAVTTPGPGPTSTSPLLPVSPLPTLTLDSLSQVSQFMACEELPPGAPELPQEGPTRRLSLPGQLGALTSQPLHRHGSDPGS
Chain of Dopamine D1 (P21728 whole entry): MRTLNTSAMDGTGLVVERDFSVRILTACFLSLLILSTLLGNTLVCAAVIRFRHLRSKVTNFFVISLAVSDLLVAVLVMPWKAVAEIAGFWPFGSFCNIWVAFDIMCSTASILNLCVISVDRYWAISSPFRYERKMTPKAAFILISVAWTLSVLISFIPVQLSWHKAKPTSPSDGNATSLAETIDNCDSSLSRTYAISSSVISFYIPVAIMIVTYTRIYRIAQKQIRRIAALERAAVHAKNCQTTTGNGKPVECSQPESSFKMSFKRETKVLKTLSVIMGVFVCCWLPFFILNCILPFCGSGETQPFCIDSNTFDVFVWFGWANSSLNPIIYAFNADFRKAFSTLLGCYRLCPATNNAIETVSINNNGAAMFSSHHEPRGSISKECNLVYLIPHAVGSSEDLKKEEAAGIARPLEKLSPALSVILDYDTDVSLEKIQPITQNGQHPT
Chain of Transporter, Dopamine (DAT) (Q01959 whole entry): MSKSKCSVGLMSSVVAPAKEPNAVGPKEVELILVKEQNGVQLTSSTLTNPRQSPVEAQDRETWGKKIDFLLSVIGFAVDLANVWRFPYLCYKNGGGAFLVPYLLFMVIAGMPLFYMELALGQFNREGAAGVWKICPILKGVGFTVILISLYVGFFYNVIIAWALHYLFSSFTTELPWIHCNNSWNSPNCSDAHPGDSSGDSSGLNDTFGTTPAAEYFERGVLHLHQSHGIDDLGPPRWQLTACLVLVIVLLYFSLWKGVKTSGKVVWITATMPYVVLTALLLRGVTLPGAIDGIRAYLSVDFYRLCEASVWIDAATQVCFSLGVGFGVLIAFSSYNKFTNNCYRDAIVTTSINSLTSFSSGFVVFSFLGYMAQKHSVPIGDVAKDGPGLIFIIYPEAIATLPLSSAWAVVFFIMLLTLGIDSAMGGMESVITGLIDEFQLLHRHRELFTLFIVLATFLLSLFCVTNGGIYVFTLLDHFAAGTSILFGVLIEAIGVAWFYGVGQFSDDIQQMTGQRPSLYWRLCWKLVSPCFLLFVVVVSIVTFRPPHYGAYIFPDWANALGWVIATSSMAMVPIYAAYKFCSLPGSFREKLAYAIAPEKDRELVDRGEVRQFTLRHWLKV
Chain of Adrenergic β2 (P07550 whole entry): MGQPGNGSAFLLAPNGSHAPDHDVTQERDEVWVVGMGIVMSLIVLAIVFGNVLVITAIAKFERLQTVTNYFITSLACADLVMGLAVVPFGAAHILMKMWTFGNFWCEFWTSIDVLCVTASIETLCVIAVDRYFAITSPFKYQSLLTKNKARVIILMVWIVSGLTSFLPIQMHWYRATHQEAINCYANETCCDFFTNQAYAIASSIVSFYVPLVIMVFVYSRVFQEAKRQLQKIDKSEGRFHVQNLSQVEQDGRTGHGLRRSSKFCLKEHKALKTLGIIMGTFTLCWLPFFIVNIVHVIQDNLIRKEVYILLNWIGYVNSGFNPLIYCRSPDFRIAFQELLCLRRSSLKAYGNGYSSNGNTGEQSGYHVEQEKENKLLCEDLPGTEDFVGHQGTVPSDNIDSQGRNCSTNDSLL
Chain of Muscarinic M2 (P08172 whole entry): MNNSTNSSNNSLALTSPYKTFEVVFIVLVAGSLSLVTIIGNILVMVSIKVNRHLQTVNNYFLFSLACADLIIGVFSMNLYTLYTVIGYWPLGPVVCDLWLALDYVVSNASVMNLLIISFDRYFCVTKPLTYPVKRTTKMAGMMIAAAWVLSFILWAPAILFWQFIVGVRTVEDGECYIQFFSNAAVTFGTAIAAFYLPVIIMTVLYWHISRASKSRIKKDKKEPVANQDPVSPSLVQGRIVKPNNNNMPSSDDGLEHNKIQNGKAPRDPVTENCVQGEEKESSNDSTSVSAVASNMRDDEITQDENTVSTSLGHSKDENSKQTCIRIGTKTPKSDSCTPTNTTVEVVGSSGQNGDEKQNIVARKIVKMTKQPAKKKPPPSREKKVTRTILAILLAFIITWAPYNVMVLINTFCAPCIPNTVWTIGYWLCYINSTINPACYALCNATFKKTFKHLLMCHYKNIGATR
Chain of Neuropeptide Y Y2 (P49146 whole entry): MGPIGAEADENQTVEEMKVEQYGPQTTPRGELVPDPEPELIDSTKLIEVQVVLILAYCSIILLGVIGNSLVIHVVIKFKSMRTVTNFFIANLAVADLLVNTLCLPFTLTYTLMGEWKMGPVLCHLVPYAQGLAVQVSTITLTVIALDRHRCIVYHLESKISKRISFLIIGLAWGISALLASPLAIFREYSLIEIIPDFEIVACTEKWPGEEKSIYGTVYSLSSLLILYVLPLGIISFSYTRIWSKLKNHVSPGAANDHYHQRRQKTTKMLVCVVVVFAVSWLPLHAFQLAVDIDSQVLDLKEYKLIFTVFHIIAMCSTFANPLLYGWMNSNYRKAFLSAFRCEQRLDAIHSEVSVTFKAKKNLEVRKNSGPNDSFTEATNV
Chain of Dopamine D3 (P35462 whole entry): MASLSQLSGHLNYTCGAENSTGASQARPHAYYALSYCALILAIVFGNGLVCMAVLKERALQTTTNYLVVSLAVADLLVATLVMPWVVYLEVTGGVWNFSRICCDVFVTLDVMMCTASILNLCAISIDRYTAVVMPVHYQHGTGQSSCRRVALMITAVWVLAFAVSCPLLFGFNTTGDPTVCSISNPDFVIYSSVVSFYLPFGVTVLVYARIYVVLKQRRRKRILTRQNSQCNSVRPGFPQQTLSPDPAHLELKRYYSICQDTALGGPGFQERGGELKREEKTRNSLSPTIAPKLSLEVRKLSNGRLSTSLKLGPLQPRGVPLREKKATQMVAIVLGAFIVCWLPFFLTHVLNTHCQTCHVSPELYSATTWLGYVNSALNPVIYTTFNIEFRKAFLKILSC
Chain of Neuropeptide Y Y1 (P25929 whole entry): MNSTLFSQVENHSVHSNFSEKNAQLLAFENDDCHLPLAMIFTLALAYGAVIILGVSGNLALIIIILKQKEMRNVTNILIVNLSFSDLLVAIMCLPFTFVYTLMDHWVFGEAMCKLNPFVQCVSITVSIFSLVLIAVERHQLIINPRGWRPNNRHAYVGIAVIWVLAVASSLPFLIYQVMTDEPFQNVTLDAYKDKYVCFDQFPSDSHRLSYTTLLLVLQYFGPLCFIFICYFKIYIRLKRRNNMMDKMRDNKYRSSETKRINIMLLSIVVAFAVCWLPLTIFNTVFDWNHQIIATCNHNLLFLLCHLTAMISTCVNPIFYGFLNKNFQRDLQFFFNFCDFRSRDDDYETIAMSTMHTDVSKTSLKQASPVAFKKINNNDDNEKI
Chain of Melatonin MT1 (P48039 whole entry): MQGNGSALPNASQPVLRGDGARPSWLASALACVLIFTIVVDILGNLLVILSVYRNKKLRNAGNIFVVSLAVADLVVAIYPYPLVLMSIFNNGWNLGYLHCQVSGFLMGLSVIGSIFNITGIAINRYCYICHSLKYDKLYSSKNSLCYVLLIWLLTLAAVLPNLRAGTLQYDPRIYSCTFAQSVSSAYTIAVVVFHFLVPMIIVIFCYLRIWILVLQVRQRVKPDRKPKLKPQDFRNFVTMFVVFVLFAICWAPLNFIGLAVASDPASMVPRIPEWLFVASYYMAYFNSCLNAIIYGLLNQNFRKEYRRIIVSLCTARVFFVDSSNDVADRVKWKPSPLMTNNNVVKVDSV

Turning to `O=P(O)(O)CCN1CCC(Nc2cc(N3CCOCC3)nc(NCc3cn(CCCO)nn3)n2)CC1` [CN016, {2-[4-(2-{[1-(3-Hydroxy-propyl)-1H-[1,2,3]triazol-4-ylmethyl]-amino}-6-morpholin-4-yl-pyrimidin-4-ylamino)-piperidin-1-yl]-ethyl}-phosphonic Acid Hydrobromide Salt], the inhibition at 10 µM is 10% at Neuropeptide Y Y2; 0% in [2]; 6% on Melatonin MT1; -4% on Neuropeptide Y Y1; 19.1% at hERG (human, CHO cells that express hERG (hERG-CHO), 10 μM); 7% in data set [5]. For the same compound, the inhibition at 10 µM is -3% against Dopamine D3, -4% on Adrenergic β2, -2% against Dopamine D1 and -1% on Muscarinic M2. The “Inhibition (%), Purinergic P2Y” value in data set [1] was determined as 9%. In addition, the “Inhibition (%), GABAA, Flunitrazepam, Central” value in [3] is on record as -5%. Further, the concentration at 1 h in data set [4] is 58 ng/mL and 84.4 nM. For the same compound, in the data set on mice (20 mg/kg), the “harmful effects, including heart rhythm, systolic blood pressure, and weight change” value is “no harmful effects”. In addition, in the data set with mice (setting [7]), the heart rhythm variability entry was “did not cause”. In addition, in the data set with mice (setting [7]), the “systolic blood pressure fluctuations” value was “did not cause”. For the same compound, the weight change entry in the data set with mice (setting [7]) is given as “did not cause”. For the same compound, the inhibition at 1 µM against hERG (human, CHO cells that express hERG (hERG-CHO), 1 μM) turned out to be 6%. The inhibition at 100 µM against hERG (human, CHO cells that express hERG (hERG-CHO), 100 μM) was determined as 32.9%. Further, on hERG (up to 100 μM, patch-clamp), the hERG liability result is “not observed”. Further, in the data set with Purinergic P2X, the “Inhibition (%), Purinergic P2X” value is listed as -9%. The “Inhibition (%), Glutamate, NMDA, Phencyclidine” value in [6] is reported as -4%.

The values above are taken from publication PMC8958505, “Discovery of Potential Neuroprotective Agents against Paclitaxel-Induced Peripheral Neuropathy” (Journal of Medicinal Chemistry, 2022).
